The record followed here is patent US20210198284A1, “GOLD COMPOSITIONS AND METHODS OF USE THEREOF” (THE UNIVERSITY OF MASSACHUSETTS, priority 2018, published 2021).

Bounds are passed on as bounds.

For orientation: logP means the decadic logarithm of the partition coefficient of the neutral form, usually between octanol and water. A high value points to a more lipophilic compound. Broadly, the Log P is the decadic logarithm of the partition coefficient of the neutral form, usually between octanol and water. A higher Log P goes with higher lipophilicity.

The test system of one data set is C. albicans ATCC 90028. The data set can be described thus: Antifungal MIC. Format: cell-based.
Another data set deals with A549 cells. The data set can be described thus: Cytotoxicity assay (resazurin). The conditions noted are these: 20 h, mean±S.E.M. from two independent experiments. Format: cell-based. How it is done: Sample preparation. The compounds were dissolved in DMSO at 12.8 mg/mL as the stock solutions, except for compounds 9-17, which were directly dissolved in the culture medium at 12.8 mg/mL. The stock solutions were diluted by the culture medium to the testing concentration at 128 μg/mL (compound 9-17 were diluted to 1,280 μg/mL). The solutions were then serially diluted two fold in a 96-well plate and were used in the cytotoxicity assay immediately.
Cell culture and cytotoxicity assay. A549 cells (ATCC CCL-185) were cultured in high glucose DMEM (Sigma-Aldrich, D6429) supplemented with 10% FBS, 1% penicillin-streptomycin solution (Sigma-Aldrich, P4333), 1% gentamicin solution (Sigma-Aldrich, G1272) and 1% amphotericin B solution (Sigma-Aldrich, A2942) at 37° C. in a humidified atmosphere containing 5% CO2. After cells reached 80%˜90% confluency, they were detached and counted using an Invitrogen Countess automated cell counter. Cells with viability over 90% were seeded at a density of 5×10^3 cells per well in 96-well cell culture plates. After overnight culture, the culture medium in each well removed with a pipet. 80 μL of the compound solutions from each well of the 96-well plate prepared above were transferred to this 96-well plate containing the cells, and the plates were incubated for 20 h. After addition of 8 μL of 110 μg/mL resazurin, the plates were incubated for further 3 h at 37° C. in 5% CO2. The fluorescence intensity was measured using a Tecan M200 Infinite Pro microplate reader at excitation 560 nm, emission 590 nm. IC50 were calculated by curve fitting the inhibition values vs. log(concentration) using GraphPad's Prism. The cytotoxicity assays (in triplicate) were repeated twice using freshly prepared cells and compound solutions.

The subject of a further data set is E. cloacae NCTC 13405. The data set can be described thus: Antibacterial assay, MIC/MBC by broth microdilution (CLSI). Format: cell-based. The conditions noted are these: E. cloacae NCTC 13405; for MIC: repeated twice, a/b = both values. In a few lines: (§1)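 CLSI broth microdilution in cation-adjusted Mueller Hinton broth, log-phase inoculum diluted to 7.5×10^5 CFU/mL before 1:1 mixing with two-fold compound dilutions, triplicates, 18 h at 37 °C static. MIC: >90% inhibition by OD600; MBC: lowest concentration giving no colonies after 5 μL spotted on agar, 18 h, 37 °C.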
A general note: Dilution methods test growth across graded concentrations, often in twofold steps.

The subject of data set [1] is K. pneumoniae ATCC 700603. The description is as above. Format: cell-based. The conditions noted are these: K. pneumoniae ATCC 700603; for MIC: repeated twice, a/b = both values. In a few lines: as §1
In a further data set the test system is E. coli ATCC 25922. The data set is described as above. Format: cell-based. Conditions: for MIC: repeated twice, a/b = both values. A digest of the protocol:
as §1

The subject of another data set is P. aeruginosa NCTC 13437. The description is as above. Format: cell-based. The conditions noted are these: P. aeruginosa NCTC 13437; for MIC: repeated twice, a/b = both values. In a few lines:
as §1

For the next data set, the system named is S. aureus JE2 (USA300). Described as above. Format: cell-based. Conditions: S. aureus JE2 (USA300); for MIC: repeated twice, a/b = both values. In a few lines:
as §1

In the next data set the test system is E. faecalis ATCC 700221. Described as above. The conditions noted are these: for MIC: repeated twice, a/b = both values. Format: cell-based. A digest of the protocol: as §1
Another data set has as its system A. baumannii NCTC 13420. The description is as above. Conditions: A. baumannii NCTC 13420; for MIC: repeated twice, a/b = both values. Format: cell-based. A digest of the protocol:
as §1

The subject of data set [2] is C. neoformans ATCC 208821. The data set can be described thus: Antifungal MIC. Format: cell-based. The conditions noted are these: for MIC: C. neoformans ATCC 208821.
Data set [3] in a line: Log P determination (n-octanol/water, FAAS). The conditions noted are these: for Log P: n-octanol/water, gold by FAAS. A digest of the protocol:
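Shake-flask partition between mutually saturated n-octanol and water; Au in each phase quantified by flame AAS against aqueous Au-standard and n-octanol calibration curves. Compound shaken ~4 h in water then 1 h with octanol, or 3-4 h in both phases then diluted and shaken 1 h; log P = log([oct]/[water]).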

For the compound `CC[P+](CC)(CC)[Au-][S][C@@H]1O[C@H](COC(C)=O)[C@@H](OC(C)=O)[C@H](OC(C)=O)[C@H]1NC(=O)C(Cl)(Cl)Cl` [Compound 4, (3,4,6-Tri-O-acetyl-2-N-trichloroactyl-1-thio-β-D-glucopyranosato) (triethylphosphine) gold (I)], the MIC against C. albicans ATCC 90028 is >32 µg/mL; in the data set on E. cloacae NCTC 13405 it was >328 μM/mL; in [1], >328 μM/mL; against E. coli ATCC 25922, 21 (21) μM/mL; against P. aeruginosa NCTC 13437, >328 μM/mL; against S. aureus JE2 (USA300), 0.01 μM/mL. Also, the MIC with E. faecalis ATCC 700221 was 0.08 μM/mL; in the data set on A. baumannii NCTC 13420, 82 μM/mL; in data set [2] it was >32 µg/mL. Besides, the “IC50 against A549 cells” value in the data set with A549 cells came to 7.9 ± 0.1 µg/mL. The “MBC (in brackets)” value is listed as 21 (21) μM/mL in the data set with E. coli ATCC 25922, “(0.01) μM/mL” with S. aureus JE2 (USA300), “(0.2) μM/mL” against E. faecalis ATCC 700221 and 164 μM/mL in the data set on A. baumannii NCTC 13420.
As for `CC[P+](CC)(CC)[Au-][S][C@@H]1O[C@H](COC(C)=O)[C@@H](O[C@@H]2O[C@H](COC(C)=O)[C@H](OC(C)=O)[C@H](OC(C)=O)[C@H]2OC(C)=O)[C@H](OC(C)=O)[C@H]1OC(C)=O` [Compound 6, [2,3,4,6-Tetra-O-acetyl-β-D-galactopyranosyl (1→4)-2,3,6-tri-O-acetyl-1-thio-β-D-glucopyranosato](triethylphosphine) gold(I)], the MIC in the data set with C. albicans ATCC 90028 was >32 µg/mL; against E. cloacae NCTC 13405, 265 (265) μM/mL; in data set [1] it was >265 μM/mL; with E. coli ATCC 25922, 33 (33) μM/mL; in the data set on P. aeruginosa NCTC 13437, 132 (132) μM/mL; in the data set on S. aureus JE2 (USA300), 0.03 μM/mL. The figures for the MIC (in the data set on E. faecalis ATCC 700221; in the data set on A. baumannii NCTC 13420; in data set [2]) were 0.1 μM/mL, 66 μM/mL and >32 µg/mL, respectively. Further, in the data set with A549 cells, the “IC50 against A549 cells” value was determined as 29.8 ± 3.2 µg/mL. In addition, the “MBC (in brackets)” value against E. cloacae NCTC 13405 was 265 (265) μM/mL; in the data set on E. coli ATCC 25922, 33 (33) μM/mL; against P. aeruginosa NCTC 13437 it was 132 (132) μM/mL; in the data set on S. aureus JE2 (USA300), “(0.1) μM/mL”; against E. faecalis ATCC 700221 it was 0.3 μM/mL; against A. baumannii NCTC 13420 it was 132 μM/mL.
Consider `CC[P+](CC)(CC)[Au-]1[SH](CC2O[C@H](O[C@H]3OC(COC(C)=O)[C@@H](OC(C)=O)C(OC(C)=O)[C@H]3OC(C)=O)C(OC(C)=O)[C@@H](OC(C)=O)[C@@H]2OC(C)=O)[Au]1[PH](CC)(CC)CC` (stereo partly drawn) [Compound 7], for which the logP in data set [3] was -0.28. The “antifungal activity in words” value in data set [2] (C. neoforman, strain not named) is given as “moderate antifungal activity”.
With “(Tri-n-butylphosphine) gold chloride [Compound 30]”, the “IC50 against A549 cells” value in the data set with A549 cells is 4.7 ± 0.0 µg/mL. In addition, in data set [3], the lipophilicity (Log P) is listed as >3.99. Besides, the MIC against E. cloacae NCTC 13405 was >589 μM/mL; in data set [1], 147 (147) μM/mL; against E. coli ATCC 25922 it was >589 μM/mL; against P. aeruginosa NCTC 13437 it was 74 (74) μM/mL; against S. aureus JE2 (USA300) it was 2 μM/mL; with E. faecalis ATCC 700221 it was 5 (5) μM/mL. The MIC with A. baumannii NCTC 13420 was 74/147. Besides, the “MBC (in brackets)” value is listed as 147 (147) μM/mL in data set [1]; 74 (74) μM/mL against P. aeruginosa NCTC 13437; 4 μM/mL with S. aureus JE2 (USA300); 5 (5) μM/mL against E. faecalis ATCC 700221; “(147) μM/mL” against A. baumannii NCTC 13420.
For “(Triethylphosphine) gold chloride [Compound 29]”, the “IC50 against A549 cells” value with A549 cells was 9.5 ± 0.1 µg/mL. For the same compound, the “Log P” value in data set [3] stood at 1.74. The “MBC (in brackets)” value against E. cloacae NCTC 13405 was 23 (23) μM/mL; in data set [1] it was 46 (46) μM/mL; in the data set with E. coli ATCC 25922, 23 (23) μM/mL; against P. aeruginosa NCTC 13437, 183 μM/mL; against S. aureus JE2 (USA300) it was 02 (0.2) μM/mL; against E. faecalis ATCC 700221, “(0.7) μM/mL”. For the same compound, the “MBC (in brackets)” value in the data set on A. baumannii NCTC 13420 worked out at 23 μM/mL. Besides, the MIC in the data set on E. cloacae NCTC 13405 was 23 (23) μM/mL; in data set [1], 46 (46) μM/mL; in the data set with E. coli ATCC 25922 it was 23 (23) μM/mL; in the data set on P. aeruginosa NCTC 13437 it was 92 μM/mL; with A. baumannii NCTC 13420, 11/23.
On to “(Tris(4-methoxyphenyl)phosphine) gold chloride [Compound 32]”, for which the “IC50 against A549 cells” value in the data set with A549 cells amounted to 9.4 ± 1.7 µg/mL. Moreover, the “Log P” value in [3] was >4.09. Moreover, the MIC is on record as >438 μM/mL in the data set with E. cloacae NCTC 13405; >438 μM/mL in data set [1]; >438 μM/mL with E. coli ATCC 25922; >438 μM/mL against P. aeruginosa NCTC 13437; 2 μM/mL in the data set on S. aureus JE2 (USA300); 3 (3) μM/mL in the data set on E. faecalis ATCC 700221. Further, in the data set on A. baumannii NCTC 13420, the MIC is reported as >438 μM/mL. For the same compound, the “MBC (in brackets)” value is 3 μM/mL in the data set on S. aureus JE2 (USA300) and 3 (3) μM/mL with E. faecalis ATCC 700221.
For “(Tris(4-trifluoromethylphenyl)phosphine) gold chloride [Compound 34]”, in the data set with A549 cells, the “IC50 against A549 cells” value came to 85.6 ± 26.1 µg/mL. Moreover, the “Log P” value in data set [3] is recorded as >3.94. Besides, the MIC in the data set with E. cloacae NCTC 13405 is >366 μM/mL; in data set [1] it was >366 μM/mL; against E. coli ATCC 25922, >366 μM/mL; with P. aeruginosa NCTC 13437, >366 μM/mL; against S. aureus JE2 (USA300), 3/1; against E. faecalis ATCC 700221, >366 μM/mL. Moreover, the MIC in the data set with A. baumannii NCTC 13420 is >366 μM/mL. Besides, the “MBC (in brackets)” value in the data set with S. aureus JE2 (USA300) came to 11 μM/mL.
